Test results from patent publication US20150141381A1, “TETRACYCLINE COMPOUNDS HAVING TARGET THERAPEUTIC ACTIVITIES” (Paratek Pharmaceuticals, Inc., priority 2001, published 2015).

Key:
E. coli mL308 225 = test: In Vitro Anti-Bacterial Activity Assay (MIC), gram negative; format: cell-based; conditions: Escherichia coli, ML308225, 18 h, MIC class, Table 3; read-out: Antibiotic Activity Gram −
S. aureus RN450 = test: In Vitro Anti-Bacterial Activity Assay (MIC), gram positive; format: cell-based; conditions: Staphylococcus aureus, RN450, 18 h, MIC class, Table 3; read-out: Antibiotic Activity Gram +

Structure (SMILES)	MIC (E. coli mL308 225) [µg/mL]	MIC (S. aureus RN450) [µg/mL]
CN(C)c1cc(NC2CCN(Cc3ccccc3)CC2)c(O)c2c1C[C@H]1C[C@H]3[C@H](N(C)C)C(O)=C(C(N)=O)C(=O)[C@@]3(O)C(O)=C1C2=O [KM]	> 4	> 4
CNCC#Cc1ccc(O)c2c1C[C@H]1C[C@H]3[C@H](N(C)C)C(O)=C(C(N)=O)C(=O)[C@@]3(O)C(O)=C1C2=O [KR]	< 4	< 4
CN(C)[C@@H]1C(O)=C(C(N)=O)C(=O)[C@@]2(O)C(O)=C3C(=O)c4c(O)c(N)cc(-c5ccoc5)c4C[C@H]3C[C@@H]12 [KT]	< 4	< 4
CN(C)c1cc(-c2ccoc2)c(O)c2c1C[C@H]1C[C@H]3[C@H](N(C)C)C(O)=C(C(N)=O)C(=O)[C@@]3(O)C(O)=C1C2=O [KU]	> 4	< 4
CCCN1CCC(Nc2ccc3c(c2O)C(=O)C2=C(O)[C@]4(O)C(=O)C(C(N)=O)=C(O)[C@@H](N(C)C)[C@@H]4[C@@H](O)[C@@H]2[C@H]3C)CC1 [KX]	< 4	< 4
CN1CCC(NCc2ccc(O)c3c2C[C@H]2C[C@H]4[C@H](N(C)C)C(O)=C(C(N)=O)C(=O)[C@@]4(O)C(O)=C2C3=O)CC1 [KY]	> 4	> 4
CN(C)c1cc(F)c(O)c2c1C[C@H]1C[C@H]3C(N(C)C)C(O)=C(C(N)=O)C(=O)[C@@]3(O)C(O)=C1C2=O (stereo partly shown) [KZ]	< 4	< 4
CN(C)Cc1ccc(-c2ccc(O)c3c2C[C@H]2C[C@H]4[C@@H](N(C)C)C(O)=C(C(N)=O)C(=O)[C@@]4(O)C(O)=C2C3=O)c2ccccc12 [K]	< 4	< 4
Cc1cc(CNCc2cc(N(C)C)c3c(c2O)C(=O)C2=C(O)[C@]4(O)C(=O)C(C(N)=O)=C(O)[C@@H](N(C)C)[C@@H]4C[C@@H]2C3)oc1C [LC]	< 4	< 4
CN(C)[C@@H]1C(O)=C(C(N)=O)C(=O)[C@@]2(O)C(O)=C3C(=O)c4c(O)ccc(CNC5CCNCC5)c4C[C@H]3C[C@@H]12 [LD]	> 4	> 4
CN(C)[C@@H]1C(O)=C(C(N)=O)C(=O)[C@@]2(O)C(O)=C3C(=O)c4c(ccc(NC5CCNCC5)c4O)C[C@H]3C[C@@H]12 [LE]	> 4	> 4
CN(C)[C@@H]1C(O)=C(C(N)=O)C(=O)[C@@]2(O)C(O)=C3C(=O)c4c(ccc(NC5CC(C)(C)NC(C)(C)C5)c4O)C[C@H]3C[C@@H]12 [LF]	> 4	< 4
CN(C)Cc1ccc(-c2cc(N(C)C)c3c(c2O)C(=O)C2=C(O)[C@]4(O)C(=O)C(C(N)=O)=C(O)[C@@H](N(C)C)[C@@H]4C[C@@H]2C3)o1 [LI]	> 4	< 4
CN(C)[C@@H]1C(O)=C(C(N)=O)C(=O)[C@@]2(O)C(O)=C3C(=O)c4c(O)ccc(-c5ccc(CNC6CCCCC6)o5)c4C[C@H]3C[C@@H]12 [LK]	< 4	< 4
CN(C)C1C(O)=C(C(N)=O)C(=O)[C@@]2(O)C(O)=C3C(=O)c4c(O)ccc(-c5ccc(CNCc6ccccc6)o5)c4C[C@H]3C[C@@H]12 (stereo partly shown) [LL]	< 4	< 4
CN(C)[C@H]1C(O)=C(C(N)=O)C(=O)[C@@]2(O)C(O)=C3C(=O)c4c(O)ccc(-c5ccc(CN6CCCC6)o5)c4C[C@H]3C[C@@H]12 [LM]	< 4	< 4
CN1CCN(Cc2ccc(-c3ccc(O)c4c3C[C@H]3C[C@H]5[C@@H](N(C)C)C(O)=C(C(N)=O)C(=O)[C@@]5(O)C(O)=C3C4=O)o2)CC1 [LN]	< 4	< 4
COc1ccc(CNC(C)C)cc1-c1ccc(O)c2c1C[C@H]1C[C@H]3[C@H](N(C)C)C(O)=C(C(N)=O)C(=O)[C@@]3(O)C(O)=C1C2=O [LR]	< 4	< 4
CCCCCC(=O)O[C@H]1[C@H]2C(=C(O)[C@]3(O)C(=O)C(C(N)=O)=C(O)[C@@H](N(C)C)[C@H]13)C(=O)c1c(O)cccc1[C@@H]2C [L]	> 4	< 4
CN(C)c1cc(CNC(=O)c2ccno2)c(O)c2c1C[C@H]1C[C@H]3C(N(C)C)C(O)=C(C(N)=O)C(=O)[C@@]3(O)C(O)=C1C2=O (stereo partly shown) [MB]	> 4	< 4
CN(C)[C@@H]1C(O)=C(C(N)=O)C(=O)[C@@]2(O)C(O)=C3C(=O)c4c(O)ccc(-c5ccc(CNC(C)(C)C)o5)c4C[C@H]3C[C@@H]12 [MD]	< 4	< 4
CN1CCN(Cc2ccc(-c3ccc(O)c4c3C[C@H]3C[C@H]5[C@H](N(C)C)C(O)=C(C(N)=O)C(=O)[C@@]5(O)C(O)=C3C4=O)cc2)CC1 [MF]	< 4	< 4
CN(C)c1cc(CNCC2CCCCC2)c(O)c2c1C[C@H]1C[C@H]3[C@H](N(C)C)C(O)=C(C(N)=O)C(=O)[C@@]3(O)C(O)=C1C2=O [MK]	< 4	< 4
